{"source": "patent US20250127900A1", "about": "“STABLE PHARMACEUTICAL COMPOSITIONS” (MANKIND PHARMA LTD., priority 2021, published 2025)", "origin": "cited, not measured here", "key": {"[1]": {"conditions": "for Acceptable intake, EMA: EMA limit; for Acceptable intake, FDA: FDA limit"}, "[2]": {"conditions": "in vivo"}}}
{"smiles": "CCN(CC)N=O", "note": "[N-Nitrosodiethylamine]", "values": [{"measurement": "Acceptable intake, EMA", "setting": "[1]", "result": 26.5, "unit": "ng/day"}, {"measurement": "Acceptable intake, FDA", "setting": "[1]", "result": 26.5, "unit": "ng/day"}]}
{"smiles": "CC(C)N(N=O)C(C)C", "note": "[N-Nitrosodiisopropylamine]", "values": [{"measurement": "Acceptable intake, EMA", "setting": "[1]", "result": 26.5, "unit": "ng/day"}, {"measurement": "Acceptable intake, FDA", "setting": "[1]", "result": 26.5, "unit": "ng/day"}]}
{"smiles": "CN(C)N=O", "note": "[N-Nitrosodimethylamine]", "values": [{"measurement": "Acceptable intake, EMA", "setting": "[1]", "result": 96, "unit": "ng/day"}, {"measurement": "Acceptable intake, FDA", "setting": "[1]", "result": 96, "unit": "ng/day"}, {"measurement": "LD50", "setting": "[2]", "result": 10, "unit": "mg/kg"}]}
